Results as given in patent US20090118350A1, “Biomarkers for Identifying Efficacy of Tegaserod in Patients with Chronic Constipation” (priority 2005, published 2009).
Read-outs that look alike come from different tables or passages of the source.

Experiments:
[1] = tested on: patients with chronic constipation; experiment: Weekly diary assessments (satisfaction with bowel habits, bothersome constipation, abdominal bloating, abdominal pain, global constipation relief) after 12 weeks, ANCOVA; assay type: in vivo, human; conditions: for weekly diary assessments, outcome: 6-mg bid vs placebo, 12 weeks; for Bothersome abdominal bloating, LS Mean Value / Bothersome abdominal pain, LS Mean Value / Bothersome constipation, LS Mean Value / Global constipation relief, LS Mean Value / Satisfaction with bowel habit, LS Mean Value: 12-wk, tegaserod 6-mg bid, lower value = better response
Description: Clinical assessments. […] The primary efficacy endpoint evaluated was the increase of 1 or more CSBM/week over baseline after 4 weeks of treatment. A secondary endpoint evaluated in this genotyping study was RESP12, the increase of 1 of more CSBM/week over baseline after 12 weeks of treatment. Patients were classified as responders if they met these criteria and had completed at least 7 days of treatment. Additional secondary efficacy assessments were evaluated based on the weekly diary assessments, such as bothersome constipation, bothersome abdominal pain, and satisfaction with bowel habits at the end of the 12-week treatment period (using the baseline value as a co-variant for analysis). Additional secondary endpoints. In addition to the above assessments, 5 additional secondary efficacy endpoints were evaluated from the weekly diary assessments. These included the weekly changes in satisfaction with bowel habits, bothersome constipation, bothersome abdominal bloating, bothersome abdominal pain, and global constipation relief. TABLE 13 presents the results of analysis comparing the overall change in these parameters at the end of 12 weeks of treatment by treatment (tegaserod 6-mg bid vs. placebo) and whether they had 1 or more of the 12 “high responder” SNPs. An ANCOVA model was applied using the baseline value of these assessments as a quantitative co-variant.

[2] = tested on: chronic constipation patients; conditions: chronic constipation patients across North and South America; Johanson et al. 2004; cited from earlier work
[3] = tested on: healthy volunteers, patients with IBS-C, patients with chronic constipation; conditions: cited from earlier work

For [H]/N=C(/NCCCCC)N/N=C/c1c[nH]c2ccc(OC)cc12 [tegaserod, Tegaserod], the “weekly diary assessments, outcome” value ([1]; all patients combined) was “better outcome compared to placebo”, the “weekly diary assessments, outcome” value ([1]; individuals with 1 or more of the 12 SNPs, all 5 assessments) was “significantly greater responses to tegaserod than placebo” and the “weekly diary assessments, outcome” value ([1]; individuals with none of the 12 SNPs) was “no treatment difference”. The “Bothersome abdominal bloating, LS Mean Value” (“Bothersome abdominal bloating” for short) ([1]; 0 of 12 SNPs) was 2.18, the “Bothersome abdominal pain, LS Mean Value” ([1]; 0 of 12 SNPs) was 1.90 and the “Bothersome constipation, LS Mean Value” ([1]; 0 of 12 SNPs) was 2.25. The “Global constipation relief, LS Mean Value” (“Global constipation relief” below) ([1]; 0 of 12 SNPs) was 2.20, the “Satisfaction with bowel habit, LS Mean Value” (“Satisfaction with bowel habit” below) ([1]; 0 of 12 SNPs) was 2.48 and the “Bothersome abdominal bloating” value ([1]; >=1 of 12 SNPs) was 2.00. For the same compound, the “Bothersome abdominal pain, LS Mean Value” ([1]; >=1 of 12 SNPs) was 1.77, the “Bothersome constipation, LS Mean Value” ([1]; >=1 of 12 SNPs) was 1.87 and the “Global constipation relief” value ([1]; >=1 of 12 SNPs) was 1.95. The “Satisfaction with bowel habit” value ([1]; >=1 of 12 SNPs) was 2.17, the “Bothersome abdominal bloating” value ([1]; All geno) was 2.09 and the “Bothersome abdominal pain, LS Mean Value” ([1]; All geno) was 1.84. For the same compound, the “Bothersome constipation, LS Mean Value” ([1]; All geno) was 2.07, the “Global constipation relief” value ([1]; All geno) was 2.08 and the “Satisfaction with bowel habit” value ([1]; All geno) was 2.33. For the same compound, the response rate [2] was 43%, the colonic transit time ([3]; healthy volunteers (Degen et al. 2001)) was “significantly increase colonic transit time” and the colonic transit time ([3]; patients with IBS-C (Prather et al. 2000)) was “significantly increase colonic transit time”. The colonic transit time ([3]; patients with chronic constipation (Johanson et al. 2004)) was “significantly increase colonic transit time”.
